According to publication PMC2424174, “Suppression of Tumor Growth and Angiogenesis by a Specific Antagonist of the Cell-Surface Expressed Nucleolin” (PLoS ONE, 2008):

Tests used:
[1] = system: U87MG cells; experiment: Colony formation in soft agar, U87MG; format: cell-based, human; settings: 5 µM HB-19, U87MG
Protocol: Figure 4 HB-19 inhibits colony formation in soft agar by tumor cell lines. (A) MDA-MB-231 cells in culture medium were seeded in triplicate in the absence (histogram C) or presence of 0.1, 0.5 and 1 of µM HB-19, or 0.1 µM of the anti-nucleolin mAb MS-3 or control IgG, or 10 µM bisphosphonate (BisP). (B) Various tumor cell lines (as indicated) in culture medium were seeded in triplicate in the absence (histogram Control) or presence of 5 µM HB-19. After 10–21 days, colonies with diameters greater than 50 µm were scored as positive. Statistical significance: *0.01<p<[…], **p<0.01, ***p<0.001.
Carcinoma cells (2×10^4) were mixed in 0.35% top agar, diluted in complete medium (DMEM containing 10% FBS) in the absence or presence of HB-19, and plated onto 0.8% bottom agar into 12-well plates. Cells were treated twice a week during 10 to 21 days. Colonies with diameters greater than 50 µm were scored as positive using a phase contrast microscope equipped with a measuring grid at magnification 100× [45]. The number of colonies was determined by analyzing 5 fields/well from 3 wells and the test was repeated at least twice.

[2] = system: tumor cells; experiment: Apoptosis in HB-19 treated cells; format: cell-based; settings: not shown
[3] = cited from earlier work
Source text: HB-19 treatment is not toxic in vitro and in vivo. The lack of translocation of HB-19 to the nucleus and nucleolus probably accounts for its lack of toxicity in cultured cells and in mice, since nuclear nucleolin is involved in many aspects of gene expression, [2]. […] In s ...

[4] = system: MDA-MB-231 cells; experiment: BrdU incorporation and cell cycle analysis; format: cell-based, human; settings: 10 µM HB-19, 48 hours, 10% FBS, compared to untreated cells
Protocol: (§1) Figure 5 Cell cycle perturbations induced by HB-19 treatment. (A) Analysis of cell cycle parameters in HB-19 treated cells. MDA-MB-231 cells were cultured for 48 hours in medium without FBS (starvation) or in medium containing 10% FBS supplemented or not with 10 µM HB-19. DNA synthesis was quantified after BrdU incorporation and staining with anti-BrdU antibody and 7-AAD, by FACScan analysis. The histograms indicate the relative amount of cells in G1, S and G2/M cell phases. […] Serum starved MDA-MB-231 cells were stimulated with 10% FBS in the absence or presence of 2, 5, and 10 µM of HB-19. Five minutes after serum stimulation, cells were lysed directly in electrophoresis sample buffer and processed for immunoblotting using anti-phospho-p42/44 ERK1/2 and anti-p42/44 ERK antibodies. NS stands for non-stimulated cells.
Cell cycle analysis was performed using the FITC-BrdU flow kit (#559619) kit from BD Bioscience Pharmingen, according to the manufacturer's instructions. Briefly, MDA-MB-231 cells (1×10^5) were seeded in 12-multiwell and incubated 24 hours for adhesion. Cells were treated with HB-19 for 48 hours and labeled with BrdU (10 µM, 1 hour, 37°C), then they were trypsinized, fixed and treated with DNase (300 µg/ml, 1 hour, 37°C) before staining with anti-BrdU-FITC antibody and 7-AAD reagent. Cells were analyzed on a Becton Dickinson FACScan (fluorescence activated cell sorter), on FL1-H and FL3-H parameters for FITC and 7-AAD fluorescent dye respectively.

[5] = system: MDA-MB-231 tumor-cell xenografts; experiment: MDA-MB-231 xenograft in nude mice; format: in vivo, human
Protocol: Figure 8 HB-19 inhibits tumor growth in the nude mice. (A) HB-19 inhibits the growth of MDA-MB-231 tumor-cell xenografts. Cells (2×10^6) were injected subcutaneously into the right flank of female nude mice. Two weeks later, mice with a palpable tumor of approximately 40 mm^3 in volume were randomly separated into three groups (n = 5) and were given peritumoral injections 3 times/week of 0.1 ml PBS alone (Control), HB-19 (5 mg/kg), or Tamoxifen (Tmx) 10 mg/kg) for 6 weeks. (B) HB-19 inhibits the growth of MDA-MB-435 tumor-cell xenografts. Cells (1×10^6) were injected in the mammary fat pad of female nude mice. Two weeks later, mice with a palpable tumor were randomly separated into three groups (n = 10) and were given intraperitoneal injections 3 times/week of 0.1 ml PBS alone (Control), HB-19 (5 mg/kg), or 5-fluouracil (5-FU, 40 mg/kg) for 8 weeks. At the end of each experiment (in A and B), mice were sacrificed and the tumors were excised and weighed. The results are presented as the mean weight ±standard deviation (±S.D.) obtained from the number of mice in each group. (C, D) Inhibition of tumor development in mice treated by intraperitoneal (i.p.) and subcutaneous (s.c.) administration of HB-19. MDA-MB-231 tumor bearing mice in three groups (n = 10) were treated with HB-19 (10 mg/kg) by i.p. or s.c. injections, 3 times/week for 28 days. […] Statistical significance: *p<0.05, **p<0.01, ***p<0.001.

[6] = system: ERK1/2; experiment: Serum-induced phosphorylation of ERK1/2; format: cell-based, human; settings: 2, 5 and 10 µM HB-19; 5 min after 10% FBS
Protocol: as §1

[7] = HB-19 10 mg/kg, intraperitoneal, 3 times/week, 28 days, n = 10

For “pseudo-tripeptide Lysψ(CH2N)-Pro-Arg coupled to a template (H2NLys-Lys-Lys-Gly-Pro-Lys-Glu-Lys-AhxCONH2) [HB-19, pseudopeptide presenting pentavalently the pseudo-tripeptide Lysψ(CH2N)-Pro-Arg coupled to a template]”, the colony formation [1] is listed as “reduced markedly”, the apoptosis [2] is listed as “not observed” and the “recovery in bone marrow” value ([3]; a few minutes following intravenous injection) is listed as “a significant proportion of the peptide is recovered in the bone marrow”. For the same substance, the tissue uptake [3] was “there is a threshold for the tissue uptake of HB-19”, the persistence in tissue ([3]; rats, 24 hours) was “a significant proportion still persists even after 24 hours in its active form” and the blood clearance ([3]; rats, systemic administration) was “rapidly cleared from blood”. The tissue distribution ([3]; rats, systemic administration) was “distributed selectively in tissues expressing enhanced levels of surface nucleolin”, the “form of excreted radioactivity in urine” value ([3]; rats) was “most of the excreted radioactivity in the urine is in the form of HB-19 metabolites” and the route of elimination ([3]; rats) was “eliminated gradually by renal glomerular filtration”. For the same substance, the “decrease of cells in S phase” value [4] was 62%, the “increase of cells in G1 phase” value [4] was 9% and the “increase of cells in G2/M phase” value [4] was 31%. The “antitumoral activity compared with tamoxifen” value ([5]; HB-19 5 mg/kg vs tamoxifen 10 mg/kg, peritumoral) was “superior to the conventional cancer drug tamoxifen”, the tumor elimination ([5]; HB-19 5 mg/kg, peritumoral, 3 times/week, 6 weeks) was “in some cases eliminated measurable tumors” and the “inhibition of tumor growth” value ([5]; HB-19 5 mg/kg, peritumoral, 3 times/week, 6 weeks, n = 5) was over 95%. For the same substance, the “complete eradication of the tumor” value [5, 7] was “Complete eradication of the tumor was observed in several mice”, the “inhibition in tumor volume” value [5, 7] was “more than 95%” and the “inhibition in tumor volume” value ([5]; HB-19 10 mg/kg, subcutaneous, 3 times/week, 28 days, n = 10) was “more than 95%”. The “serum-stimulated ERK1/ERK2 phosphorylation” value [6] was “prevents enhanced phosphorylation of ERK1/ERK2”.
